SMILES strings stand for the structures.

The term KD denotes the equilibrium constant for the complex coming apart.

In experiment [1] the test system is 5′-biotinylated dsDNA (DNA, duplex) TGTAATCGTAGGTTGGTCCCATCACCCACC/GGTGGGTGATGGGACCAACCTACGATTACA
The experiment can be described thus: resonant mirror optical biosensor kinetics (IAsys plus). As to conditions: 138 mM NaCl, 2.7 mM KCl; PBS (10 mM Na2HPO4), pH 7.4, 37 °C; monoexponential fit.

The test system of a further experiment is CRL-1831 cells. The experiment can be described thus: Cytoplasmic cholesterol levels (AmplexRed), CRL-1831. In kind it is cell-based, human. The conditions noted are these: 10 μM, 4 h.

For `Cc1nn(-c2ccccc2)c([O-])c1C(=O)c1ccco1.Cc1nn(-c2ccccc2)c([O-])c1C(=O)c1ccco1.Cc1nn(-c2ccccc2)c([O-])c1C(=O)c1ccco1.[Ga+3]`, the dissociation constant (KD) in experiment [1] came out at 3.63 ± 1.88 µM.
Still for that read-out and setting: as for `Cc1nn(-c2ccccc2)c([O-])c1C(=O)c1ccc(C(C)(C)C)cc1.Cc1nn(-c2ccccc2)c([O-])c1C(=O)c1ccc(C(C)(C)C)cc1.Cc1nn(-c2ccccc2)c([O-])c1C(=O)c1ccc(C(C)(C)C)cc1.[Ga+3]`, the figure is 3.27 ± 0.78 µM.
On the same count and under the same terms, as for `COc1ccc(C(=O)c2c(C)nn(-c3ccccc3)c2[O-])cc1.COc1ccc(C(=O)c2c(C)nn(-c3ccccc3)c2[O-])cc1.COc1ccc(C(=O)c2c(C)nn(-c3ccccc3)c2[O-])cc1.[Ga+3]`, the figure is 3.34 ± 1.67 µM.
On to `CCC(C)(C)C(=O)O[C@H]1C[C@@H](C)C=C2C=C[C@H](C)[C@H](CC[C@@H]3C[C@@H](O)CC(=O)O3)[C@H]21` [Simvastatin, reference compound], for which the “cytoplasmic cholesterol concentration, CRL-1831” value in the experiment with CRL-1831 cells was “significantly decreased”.
As for `Cc1nn(-c2ccccc2)c([O-])c1C(=O)c1cccs1.Cc1nn(-c2ccccc2)c([O-])c1C(=O)c1cccs1.Cc1nn(-c2ccccc2)c([O-])c1C(=O)c1cccs1.[Ga+3]`, in experiment [1], the KD was 2.24 ± 1.36 µM.
On the same count and under the same terms, the value for `Cc1nn(-c2ccccc2)c([O-])c1C(=O)c1ccccc1.Cc1nn(-c2ccccc2)c([O-])c1C(=O)c1ccccc1.Cc1nn(-c2ccccc2)c([O-])c1C(=O)c1ccccc1.[Ga+3]` was 0.76 ± 0.54 µM.

The values are drawn from article PMC10009752 (Journal of Medicinal Chemistry, 2023).
